Test results published in publication doi:10.1101/2023.02.27.530254, “Large library docking for cannabinoid-1 receptor agonists with reduced side effects” (bioRxiv, 2024).

How the values were obtained:
GPR55, GPR18, GPR119 = experiment: PRESTO-Tango GPCRome arrestin-recruitment screen; format: cell-based; conditions: tested at 10 μM
Method: (§1) Compound ‘4042 was tested at 10 μM for off-target activity against a panel of 320 non-olfactory GPCRs using PRESTO-Tango GPCRome arrestin-recruitment assay, as described. Receptors with at least three-fold increased relative luminescence over corresponding basal activity are potential positive hits, and were tested in dose response follow-up studies. Compound ‘4042 was further tested at 1 μM for off-target activity at a panel of 45 common GPCR and non-GPCR drug targets. Receptors with at least 50% displaced radioligand are potential positive hits and were tested in dose response follow-up studies. Screening was performed by the National Institutes of Mental Health Psychoactive Drug Screen Program (PDSP)[81].

[1] = system: melatonin-1 (MT1R), ghrelin (GHSR), Sigma1 and peripheral benzodiazepine receptors; experiment: PDSP off-target secondary validation (dose response) assays; format: cell-based; conditions: read-out: EC50 at off-target receptors (weak partial agonism)
Method: as §1

CB1R = target: T1, CB1R (Homo sapiens, UniProt P21554, C107A/C139A/C149A/C238A/C355A/C382A/C386A/C415A/C431A/C449A/C98A/R336C); experiment: Bimane fluorescence of TM6-labeled minimal cysteine CB1R; format: biochemical; conditions: 10 μM ligand; apo 459 nm
T1 construct: N-terminal FLAG tag and C-terminal histidine tag was added to human full-length CB1; FLAG (N); histidine tag (C); made in house; host or cells: Spodoptera frugiperda Sf9 (baculovirus)
T1 sequence (P21554 whole entry C98A/C107A/C139A/C149A/C238A/R336C/C355A/C382A/C386A/C415A/C431A/C449A): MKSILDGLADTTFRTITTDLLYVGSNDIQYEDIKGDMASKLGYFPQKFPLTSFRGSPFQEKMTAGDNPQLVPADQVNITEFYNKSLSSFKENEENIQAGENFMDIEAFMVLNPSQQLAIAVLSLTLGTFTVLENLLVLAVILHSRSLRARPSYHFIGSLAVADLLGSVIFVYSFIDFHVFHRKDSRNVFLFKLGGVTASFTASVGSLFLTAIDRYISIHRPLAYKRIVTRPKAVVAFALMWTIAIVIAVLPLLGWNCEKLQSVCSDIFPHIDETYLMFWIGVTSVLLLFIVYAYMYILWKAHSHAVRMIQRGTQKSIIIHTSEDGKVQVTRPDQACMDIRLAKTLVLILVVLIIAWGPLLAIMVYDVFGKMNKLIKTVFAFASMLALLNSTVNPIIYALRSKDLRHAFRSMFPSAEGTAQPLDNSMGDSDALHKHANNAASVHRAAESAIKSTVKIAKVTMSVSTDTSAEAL
Method: A minimal cysteine version of CB1R was generated[73] where all the cysteine residues (except C256 and C264) were mutated to alanine. […] Excess label was removed using size exclusion chromatography on a Superdex 200 10/300 Increase column in 20 mM HEPES pH 7.5, 100 mM NaCl and 0.01% MNG/0.001% CHS. Bimane-labeled CB1R at […] was incubated with ligands (10 μM) for one hour at room temperature. Fluorescence data was collected at room temperature in a 150 μL cuvette with a FluorEssence v3.8 software on a Fluorolog instrument (Horiba) in photon-counting mode. Bimane fluorescence was measured by excitation at 370 nm with excitation and emission bandwidth passes of 4 nm. The emission spectra were recorded from 410 to 510 nm with 1 nm increment and 0.1 s integration time.

COC(=O)C(C)(NC(=O)c1cc(C)n(-c2cccc(C(F)(F)F)c2)n1)c1cccs1 (stereo not drawn) [‘4042]
agonist activity at putative cannabinoid receptors (GPR55, GPR18, GPR119): no agonist activity | EC50 [1]: > 1000 nM

COC(=O)[C@@](C)(NC(=O)c1cc(C)n(-c2cccc(C(F)(F)F)c2)n1)c1cccs1 [‘1350]
bimane spectrum λmax (CB1R): 463 nm
